What was measured:
[1] = target: T1, MAO-B (Rattus norvegicus, UniProt P19643); experiment: In vitro MAO activity assay, rat brain mitochondrial suspension, phenethylamine (PEA) as substrate; assay type: biochemical; details: 20 min preincubation, reaction time 10 min
T1 construct: en utilisant comme source d'enzyme une suspension mitochondriale du cerveau de rat; from tissue; host or cells: rat brain mitochondrial suspension
T1 sequence (P19643 1-520): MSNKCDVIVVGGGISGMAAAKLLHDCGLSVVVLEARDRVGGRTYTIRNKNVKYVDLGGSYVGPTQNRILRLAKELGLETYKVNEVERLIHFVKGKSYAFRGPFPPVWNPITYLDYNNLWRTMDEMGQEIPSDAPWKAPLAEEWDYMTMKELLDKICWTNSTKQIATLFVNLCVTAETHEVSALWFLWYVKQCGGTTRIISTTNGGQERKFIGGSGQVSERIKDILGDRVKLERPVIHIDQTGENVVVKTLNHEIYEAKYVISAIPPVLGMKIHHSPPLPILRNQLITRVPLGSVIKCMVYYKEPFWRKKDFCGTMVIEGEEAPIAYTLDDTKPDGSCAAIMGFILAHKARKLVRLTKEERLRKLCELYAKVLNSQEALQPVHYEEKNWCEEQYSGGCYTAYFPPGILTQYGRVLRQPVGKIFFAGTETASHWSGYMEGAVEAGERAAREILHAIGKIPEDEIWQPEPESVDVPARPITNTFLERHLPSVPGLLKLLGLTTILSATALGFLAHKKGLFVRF
Protocol: (§1) L'activité inhibitrice de la monoamine oxydase de ces composés a été mise en évidence par des mesures in vitro de la MAO.
(§2) Le dosage de l'activité de la MAO a été effectué en utilisant comme source d'enzyme une suspension mitochondriale du cerveau de rat. Le dosage standard consiste à préincuber l'enzyme pendant 20 minutes en absence, puis en présence des inhibiteurs. Les activités sont déterminées en utilisant la sérotonine (5 HT) et la phénéthylamine (PEA) comme substrats de la MAO-A et de la MAO-B, les temps de réaction étant de 40 minutes avec la 5 HT et de 10 minutes avec la PEA. Le mode opératoire mis en oeuvre est celui du protocole de P.C. Baker : Dev. Biol. 14, 267, 1966.
(§3) Les activités d'un certain nombre de composés selon l'invention vis-à-vis de la MAO-B et de la MAO-A sont données par leurs constantes d'inhibition Ki (MAO-B) et Ki(MAO-A) et sont rassemblées dans le tableau ci-après. TABLEAU

[2] = target: T2, MAO-A (Rattus norvegicus, UniProt P21396); experiment: In vitro MAO activity assay, rat brain mitochondrial suspension, serotonin (5 HT) as substrate; assay type: biochemical; details: 20 min preincubation, substrate 5 HT, reaction time 40 min
T2 construct: en utilisant comme source d'enzyme une suspension mitochondriale du cerveau de rat; from tissue; host or cells: rat brain mitochondrial suspension
T2 sequence (P21396 1-526): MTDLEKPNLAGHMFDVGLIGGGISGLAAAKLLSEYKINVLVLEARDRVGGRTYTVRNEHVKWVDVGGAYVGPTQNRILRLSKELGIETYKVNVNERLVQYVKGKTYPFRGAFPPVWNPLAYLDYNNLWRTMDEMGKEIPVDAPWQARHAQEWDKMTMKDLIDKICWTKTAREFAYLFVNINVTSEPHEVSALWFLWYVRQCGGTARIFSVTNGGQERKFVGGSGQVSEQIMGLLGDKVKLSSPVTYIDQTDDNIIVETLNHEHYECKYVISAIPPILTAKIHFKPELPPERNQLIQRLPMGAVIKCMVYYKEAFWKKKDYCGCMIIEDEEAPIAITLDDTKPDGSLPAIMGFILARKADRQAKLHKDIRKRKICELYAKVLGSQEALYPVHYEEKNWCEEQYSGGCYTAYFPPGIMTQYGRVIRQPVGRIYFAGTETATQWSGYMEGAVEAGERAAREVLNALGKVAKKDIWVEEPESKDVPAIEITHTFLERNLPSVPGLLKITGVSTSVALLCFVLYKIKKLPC
Protocol: as §1, §2, §3

Ki [1] [nM]	Ki(MAO-A) [2]	SMILES
15.6	inactif	COCCn1nnc(-c2ccc(OCc3ccccc3)cc2)n1 [MD 230300, (benzyloxy-4 phényl)-5 méthoxyéthyl-2 2H tétrazole]
35	–	COCCn1nnc(-c2ccc(OCc3cccc(Cl)c3)cc2)n1 [MD 230324, [(chloro-3 benzyloxy)-4 phényl]-5 méthoxyéthyl-2 2H tétrazole]
5	–	COCCn1nc(-c2ccc(OCc3ccc(Cl)cc3)cc2)oc1=O [MD 230306, [(chloro-4 benzyloxy)-4 phényl]-5 méthoxyéthyl-3 3H oxadiazole-1,3,4 one-2]
184	–	COCCn1nnc(-c2ccc(OCc3ccc(Cl)cc3)cc2)n1 [MD 230305, [(chloro-4 benzyloxy)-4 phényl]-5 méthoxyéthyl-2 2H-tétrazole]
